Laboratory results as given in patent publication US20130274258A1, “CARBAZOLE AND CARBOLINE DERIVATIVES, AND PREPARATION AND THERAPEUTIC APPLICATIONS THEREOF” (PHILIP MORRIS PRODUCTS S.A., priority 2010, published 2013).
Like-named read-outs stand apart in the source and are kept apart here.

Assays:
Jurkat cells = assay: Jurkat cell viability, resazurin (Alamar Blue) assay; type: cell-based; settings: for IC50: Homo sapiens
Experimental: The compounds were tested for pharmacological activity. In each of the tests, each compound was tested at […] in duplicates. […] The percentage of response relative to the DMSO control was then calculated for the mean value of the duplicates of each test. The values of the three tests were finally averaged and the standard deviations calculated.
Jurkat cells (10'000 cells/well) were incubated in the presence of various concentrations of compounds, doxorubicin or staurosporine. Twenty-two hours later, cells were incubated with resazurin (20 μg/ml) for 4 hours and fluorescence was measured at 590 nm.

caspase 3 and 7 = assay: Apoptosis induction in Jurkat cells, caspase 3 and 7 assay; type: cell-based; settings: for IC50: Homo sapiens, Jurkat cells, caspase 3/7 assay
Experimental: Compounds were assessed for their ability to induce apoptosis of Jurkat cells at 2 and 10 micromolar after 4 and 22 hours.
In order to firmly establish that the compounds of the invention cause cytotoxicity through apoptosis, IC50 of five compounds of the invention, doxorubicin and staurosporin were determined in the caspase assays; results are presented in Table 2. Importantly, the IC50 determined in the Alamar Blue and in the caspase assays were largely overlapping.

[1] = Jurkat cells, 22 h then resazurin 4 h, three experiments in duplicates, read-out: IC50

`Cc1nccc2c1[nH]c1ccc(-c3cccnc3)cc12` [Example E25, 6-(pyridine-3-yl)-1-methyl-9H-pyrido[3,4-b]indole] was tested, and the IC50 (Jurkat cells; [1]) was 602 nM, the “caspase 3 and 7 activity compared to solvent control (%)” value (from here on “caspase 3 and 7 activity … (%)”) (caspase 3 and 7; 2 μM after 4 h) was −0.6% and the “caspase 3 and 7 activity … (%)” value (caspase 3 and 7; 2 μM after 22 h) was 624.4%. The “caspase 3 and 7 activity … (%)” value (caspase 3 and 7; 10 μM after 4 h) was 18.7% and the “caspase 3 and 7 activity … (%)” value (caspase 3 and 7; 10 μM after 22 h) was 405.7%.

With `Cc1nccc2c1[nH]c1ccc(-c3cccc(C(F)(F)F)c3)cc12` [Example E6, 6-(3-(trifluoromethyl)phenyl)-1-methyl-9H-pyrido[3,4-b]indole] the IC50 (Jurkat cells; [1]) was 1260 nM, the “caspase 3 and 7 activity … (%)” value (caspase 3 and 7; 2 μM after 4 h) was 9.2% and the “caspase 3 and 7 activity … (%)” value (caspase 3 and 7; 2 μM after 22 h) was 482.6%. For the same molecule, the “caspase 3 and 7 activity … (%)” value (caspase 3 and 7; 10 μM after 4 h) was 11.2% and the “caspase 3 and 7 activity … (%)” value (caspase 3 and 7; 10 μM after 22 h) was 585.1%.

With `COc1cccc(-c2ccc3[nH]c4c(C)nccc4c3c2)c1` [Example E9, 6-(3-methoxyphenyl)-1-methyl-9H-pyrido[3,4-b]indole] the IC50 (Jurkat cells; [1]) was 137 nM and the IC50 (caspase 3 and 7) was 0.215 µM.

With `Cc1nccc2c1[nH]c1ccc(-c3ccc4c(c3)CCO4)cc12` [Example E29, 6-(2,3-dihydrobenzofuran-5-yl)-1-methyl-9H-pyrido[3,4-b]indole] the IC50 (Jurkat cells; [1]) was 64 nM and the IC50 (caspase 3 and 7) was 0.128 µM.

For `CCOc1ccc(F)c(-c2ccc3[nH]c4c(C)nccc4c3c2)c1` [Example E7, 6-(5-ethoxy-2-fluorophenyl)-1-methyl-9H-pyrido[3,4-b]indole], the IC50 (Jurkat cells; [1]) was 775 nM, the “caspase 3 and 7 activity … (%)” value (caspase 3 and 7; 2 μM after 4 h) was −7.6% and the “caspase 3 and 7 activity … (%)” value (caspase 3 and 7; 2 μM after 22 h) was 616.1%. For the same molecule, the “caspase 3 and 7 activity … (%)” value (caspase 3 and 7; 10 μM after 4 h) was −10.2% and the “caspase 3 and 7 activity … (%)” value (caspase 3 and 7; 10 μM after 22 h) was 548.1%.

`Cc1nccc2c1[nH]c1ccc(-c3cccc(NC=O)c3)cc12` [Example E34, 6-(3-formamidophenyl)-1-methyl-9H-pyrido[3,4-b]indole] showed an IC50 (Jurkat cells; [1]) of 28 nM.

Work on `Cc1nccc2c1[nH]c1ccc(-c3cccc(S(N)(=O)=O)c3)cc12` [Example E46, 3-(1-methyl-9H-pyrido[3,4-b]indol-6-yl)benzenesulfonamide] yielded an IC50 (Jurkat cells; [1]) of 260 nM.

`Cc1nccc2c1[nH]c1ccc(-c3cccc(C(=O)O)c3)cc12` [Example C6, 6-(3-carboxyphenyl)-1-methyl-9H-pyrido[3,4-b]indole] was tested, and the “IC50 (μM)” value (Jurkat cells; Jurkat cells, 22 h then resazurin 4 h, three experiments in duplicates) was “not active”.

`Cc1nccc2c1[nH]c1ccc(-c3cccc(C(C)O)c3)cc12` (stereo not drawn) [Example E19, 6-(3-(1-hydroxyethyl)phenyl)-1-methyl-9H-pyrido[3,4-b]indole] gave an IC50 (Jurkat cells; [1]) of 1400 nM.

Molecule `Cc1nccc2c1[nH]c1ccc(-c3cccc(CO)c3)cc12` [Example E18, 6-(3-hydroxymethylphenyl)-1-methyl-9H-pyrido[3,4-b]indole] has an IC50 (Jurkat cells; [1]) of 46 nM.

Work on `COc1cccc2c1C(=O)c1c(O)c3c(c(O)c1C2=O)C[C@@](O)(C(=O)CO)C[C@@H]3O[C@H]1C[C@H](N)[C@H](O)[C@H](C)O1` [doxorubicin, reference compound] yielded an IC50 (Jurkat cells; Jurkat, control compounds of the tests, read-out: IC50 of control agents included in each test) of 85 nM.

`Cc1c2[nH]c3ccc(-c4cc(Cl)cc(Cl)c4)cc3c2cc[n+]1[O-]` [Example E60, 6-(3,5-dichlorophenyl)-1-methyl-9H-pyrido[3,4-b]indole 2-oxide] was tested, and the IC50 (Jurkat cells; [1]) was 25 nM.

`Cc1nccc2c3cc(-c4ccc5c(c4)CCO5)ccc3n(C)c12` [Example E51, 6-(2,3-dihydrobenzofuran-5-yl)-1,9-dimethyl-9H-pyrido[3,4-b]indole] showed an IC50 (Jurkat cells; [1]) of 9 nM.

Molecule `Cc1nccc2c1[nH]c1ccc(-c3cccc(S(=O)(=O)NCCO)c3)cc12` [Example E47, N-(2-hydroxyethyl)-3-(1-methyl-9H-pyrido[3,4-b]indol-6-yl)benzenesulfonamide] has an IC50 (Jurkat cells; [1]) of 1210 nM.

With `Cc1nccc2c1[nH]c1ccc(-c3cccc(CN4CCOCC4)c3)cc12` [Example E56] the IC50 (Jurkat cells; [1]) was 733 nM.

Molecule `Cc1nccc2c1[nH]c1ccc(-c3ccc(C#N)cc3)cc12` [Example E22, 6-(4-cyanophenyl)-1-methyl-9H-pyrido[3,4-b]indole] has an IC50 (Jurkat cells; [1]) of 5000 nM.
